Experimental data: ChEMBL document CHEMBL5463727, “Data for DCP probe SGK3-PROTAC1” (2023)
pIC50: −log10 of the molar value.

Tests used:
[1] = biological target: Tyrosine-protein kinase ABL1 (Homo sapiens) (UniProt P00519); experiment: % Activity remaining of ABL in the Dundee kinase panel at 1.0 µM; conditions: Compound concentration 1.0 uM
[2] = biological target: Calcium/calmodulin-dependent protein kinase type 1 (Homo sapiens) (UniProt Q14012); experiment: % Activity remaining of CAMK1 in the Dundee kinase panel at 1.0 µM; conditions: Compound concentration 1.0 uM
[3] = biological target: Serine/threonine-protein kinase Chk2 (Homo sapiens) (UniProt O96017); experiment: % Activity remaining of CHK2 in the Dundee kinase panel at 1.0 µM; conditions: Compound concentration 1.0 uM
[4] = biological target: Casein kinase I isoform gamma-2 (Homo sapiens) (UniProt P78368); experiment: % Activity remaining of CK1 gamma 2 in the Dundee kinase panel at 1.0 µM; conditions: Compound concentration 1.0 uM
[5] = biological target: Discoidin domain-containing receptor 2 (Homo sapiens) (UniProt Q16832); experiment: % Activity remaining of DDR2 in the Dundee kinase panel at 1.0 µM; conditions: Compound concentration 1.0 uM
[6] = biological target: Eukaryotic translation initiation factor 2-alpha kinase 3 (Homo sapiens) (UniProt Q9NZJ5); experiment: % Activity remaining of EIF2AK3 in the Dundee kinase panel at 1.0 µM; conditions: Compound concentration 1.0 uM
[7] = biological target: Ephrin type-A receptor 2 (Homo sapiens) (UniProt P29317); experiment: % Activity remaining of EPH-A2 in the Dundee kinase panel at 1.0 µM; conditions: Compound concentration 1.0 uM
[8] = biological target: Ephrin type-B receptor 3 (Homo sapiens) (UniProt P54753); experiment: % Activity remaining of EPH-B3 in the Dundee kinase panel at 1.0 µM; conditions: Compound concentration 1.0 uM
[9] = biological target: Ephrin type-B receptor 4 (Homo sapiens) (UniProt P54760); experiment: % Activity remaining of EPH-B4 in the Dundee kinase panel at 1.0 µM; conditions: Compound concentration 1.0 uM
[10] = biological target: Mitogen-activated protein kinase 7 (Homo sapiens) (UniProt Q13164); experiment: % Activity remaining of ERK5 in the Dundee kinase panel at 1.0 µM; conditions: Compound concentration 1.0 uM
[11] = biological target: Mitogen-activated protein kinase 15 (Homo sapiens) (UniProt Q8TD08); experiment: % Activity remaining of ERK8 in the Dundee kinase panel at 1.0 µM; conditions: Compound concentration 1.0 uM
[12] = biological target: Receptor tyrosine-protein kinase erbB-4 (Homo sapiens) (UniProt Q15303); experiment: % Activity remaining of HER4 in the Dundee kinase panel at 1.0 µM; conditions: Compound concentration 1.0 uM
[13] = biological target: Homeodomain-interacting protein kinase 3 (Homo sapiens) (UniProt Q9H422); experiment: % Activity remaining of HIPK3 in the Dundee kinase panel at 1.0 µM; conditions: Compound concentration 1.0 uM
[14] = biological target: Inhibitor of nuclear factor kappa-B kinase subunit epsilon (Homo sapiens) (UniProt Q14164); experiment: % Activity remaining of IKK epsilon in the Dundee kinase panel at 1.0 µM; conditions: Compound concentration 1.0 uM
[15] = biological target: Serine/threonine-protein kinase STK11 (Homo sapiens) (UniProt Q15831); experiment: % Activity remaining of LKB1 in the Dundee kinase panel at 1.0 µM; conditions: Compound concentration 1.0 uM
[16] = biological target: Mitogen-activated protein kinase kinase kinase kinase 5 (Homo sapiens) (UniProt Q9Y4K4); experiment: % Activity remaining of MAP4K5 in the Dundee kinase panel at 1.0 µM; conditions: Compound concentration 1.0 uM
[17] = biological target: Dual specificity mitogen-activated protein kinase kinase 1 (Homo sapiens) (UniProt Q02750); experiment: % Activity remaining of MKK1 in the Dundee kinase panel at 1.0 µM; conditions: Compound concentration 1.0 uM
[18] = biological target: Dual specificity mitogen-activated protein kinase kinase 6 (Homo sapiens) (UniProt P52564); experiment: % Activity remaining of MKK6 in the Dundee kinase panel at 1.0 µM; conditions: Compound concentration 1.0 uM
[19] = biological target: MAP kinase-interacting serine/threonine-protein kinase 2 (Homo sapiens) (UniProt Q9HBH9); experiment: % Activity remaining of MNK2 in the Dundee kinase panel at 1.0 µM; conditions: Compound concentration 1.0 uM
[20] = biological target: Serine/threonine-protein kinase 16 (Homo sapiens) (UniProt O75716); experiment: % Activity remaining of MPSK1 in the Dundee kinase panel at 1.0 µM; conditions: Compound concentration 1.0 uM
[21] = biological target: Serine/threonine-protein kinase 24 (Homo sapiens) (UniProt Q9Y6E0); experiment: % Activity remaining of MST3 in the Dundee kinase panel at 1.0 µM; conditions: Compound concentration 1.0 uM
[22] = biological target: Serine/threonine-protein kinase Nek6 (Homo sapiens) (UniProt Q9HC98); experiment: % Activity remaining of NEK6 in the Dundee kinase panel at 1.0 µM; conditions: Compound concentration 1.0 uM
[23] = biological target: Serine/threonine-protein kinase PAK 2 (Homo sapiens) (UniProt Q13177); experiment: % Activity remaining of PAK2 in the Dundee kinase panel at 1.0 µM; conditions: Compound concentration 1.0 uM
[24] = biological target: Serine/threonine-protein kinase pim-1 (Homo sapiens) (UniProt P11309); experiment: % Activity remaining of PIM1 in the Dundee kinase panel at 1.0 µM; conditions: Compound concentration 1.0 uM
[25] = biological target: RAC-beta serine/threonine-protein kinase (Homo sapiens) (UniProt P31751); experiment: % Activity remaining of PKB beta in the Dundee kinase panel at 1.0 µM; conditions: Compound concentration 1.0 uM
[26] = biological target: Protein kinase C gamma type (Homo sapiens) (UniProt P05129); experiment: % Activity remaining of PKC gamma in the Dundee kinase panel at 1.0 µM; conditions: Compound concentration 1.0 uM
[27] = biological target: Serine/threonine-protein kinase D1 (Homo sapiens) (UniProt Q15139); experiment: % Activity remaining of PKD1 in the Dundee kinase panel at 1.0 µM; conditions: Compound concentration 1.0 uM
[28] = biological target: Serine/threonine-protein kinase PLK1 (Homo sapiens) (UniProt P53350); experiment: % Activity remaining of PLK1 in the Dundee kinase panel at 1.0 µM; conditions: Compound concentration 1.0 uM
[29] = biological target: T1, Serine/threonine-protein kinase Sgk1 (Homo sapiens) (UniProt O00141); experiment: (§1) % Activity remaining of SGK1 in the Dundee kinase panel at 1.0 µM; conditions: Compound concentration 1.0 uM
T1 sequence (whole entry): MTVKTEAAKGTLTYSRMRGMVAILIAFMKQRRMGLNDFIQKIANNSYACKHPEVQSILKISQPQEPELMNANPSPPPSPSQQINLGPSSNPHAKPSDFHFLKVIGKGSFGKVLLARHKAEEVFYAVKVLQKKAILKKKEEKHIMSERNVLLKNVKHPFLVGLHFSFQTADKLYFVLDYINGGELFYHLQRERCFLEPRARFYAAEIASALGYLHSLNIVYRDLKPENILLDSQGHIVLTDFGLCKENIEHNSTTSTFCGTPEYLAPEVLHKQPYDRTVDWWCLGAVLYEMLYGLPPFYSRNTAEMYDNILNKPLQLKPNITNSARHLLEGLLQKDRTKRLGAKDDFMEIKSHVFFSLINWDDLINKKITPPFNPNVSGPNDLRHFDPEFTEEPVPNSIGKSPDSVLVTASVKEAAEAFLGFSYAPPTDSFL

[30] = biological target: Serine/threonine-protein kinase Sgk1 (Homo sapiens, UniProt O00141); experiment: as §1
[31] = biological target: Myosin light chain kinase, smooth muscle (Homo sapiens) (UniProt Q15746); experiment: % Activity remaining of SmMLCK in the Dundee kinase panel at 1.0 µM; conditions: Compound concentration 1.0 uM
[32] = biological target: Dual specificity testis-specific protein kinase 1 (Homo sapiens) (UniProt Q15569); experiment: % Activity remaining of TESK1 in the Dundee kinase panel at 1.0 µM; conditions: Compound concentration 1.0 uM
[33] = biological target: Testis-specific serine/threonine-protein kinase 1 (Homo sapiens) (UniProt Q9BXA7); experiment: % Activity remaining of TSSK1 in the Dundee kinase panel at 1.0 µM; conditions: Compound concentration 1.0 uM
[34] = biological target: Vascular endothelial growth factor receptor 1 (Homo sapiens) (UniProt P17948); experiment: % Activity remaining of VEGFR1 in the Dundee kinase panel at 1.0 µM; conditions: Compound concentration 1.0 uM

Chain of Serine/threonine-protein kinase PLK1 (Homo sapiens) (P53350 whole entry): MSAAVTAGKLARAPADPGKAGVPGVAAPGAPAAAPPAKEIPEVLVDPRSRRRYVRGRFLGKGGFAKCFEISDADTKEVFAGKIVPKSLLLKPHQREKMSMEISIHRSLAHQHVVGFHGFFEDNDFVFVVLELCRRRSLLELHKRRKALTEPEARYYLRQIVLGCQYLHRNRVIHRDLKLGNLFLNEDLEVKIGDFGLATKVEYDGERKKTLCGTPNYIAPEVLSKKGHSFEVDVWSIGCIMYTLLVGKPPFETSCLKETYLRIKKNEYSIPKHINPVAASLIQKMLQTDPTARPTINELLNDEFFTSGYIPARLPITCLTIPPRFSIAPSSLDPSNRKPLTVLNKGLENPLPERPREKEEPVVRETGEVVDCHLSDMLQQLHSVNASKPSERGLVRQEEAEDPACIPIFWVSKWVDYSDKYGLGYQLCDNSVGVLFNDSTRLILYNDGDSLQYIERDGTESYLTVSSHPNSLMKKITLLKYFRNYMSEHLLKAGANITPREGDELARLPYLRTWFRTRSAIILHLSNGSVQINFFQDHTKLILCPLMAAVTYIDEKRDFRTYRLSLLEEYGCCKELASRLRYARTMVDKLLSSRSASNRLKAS
Chain of Ephrin type-B receptor 4 (Homo sapiens) (P54760 whole entry): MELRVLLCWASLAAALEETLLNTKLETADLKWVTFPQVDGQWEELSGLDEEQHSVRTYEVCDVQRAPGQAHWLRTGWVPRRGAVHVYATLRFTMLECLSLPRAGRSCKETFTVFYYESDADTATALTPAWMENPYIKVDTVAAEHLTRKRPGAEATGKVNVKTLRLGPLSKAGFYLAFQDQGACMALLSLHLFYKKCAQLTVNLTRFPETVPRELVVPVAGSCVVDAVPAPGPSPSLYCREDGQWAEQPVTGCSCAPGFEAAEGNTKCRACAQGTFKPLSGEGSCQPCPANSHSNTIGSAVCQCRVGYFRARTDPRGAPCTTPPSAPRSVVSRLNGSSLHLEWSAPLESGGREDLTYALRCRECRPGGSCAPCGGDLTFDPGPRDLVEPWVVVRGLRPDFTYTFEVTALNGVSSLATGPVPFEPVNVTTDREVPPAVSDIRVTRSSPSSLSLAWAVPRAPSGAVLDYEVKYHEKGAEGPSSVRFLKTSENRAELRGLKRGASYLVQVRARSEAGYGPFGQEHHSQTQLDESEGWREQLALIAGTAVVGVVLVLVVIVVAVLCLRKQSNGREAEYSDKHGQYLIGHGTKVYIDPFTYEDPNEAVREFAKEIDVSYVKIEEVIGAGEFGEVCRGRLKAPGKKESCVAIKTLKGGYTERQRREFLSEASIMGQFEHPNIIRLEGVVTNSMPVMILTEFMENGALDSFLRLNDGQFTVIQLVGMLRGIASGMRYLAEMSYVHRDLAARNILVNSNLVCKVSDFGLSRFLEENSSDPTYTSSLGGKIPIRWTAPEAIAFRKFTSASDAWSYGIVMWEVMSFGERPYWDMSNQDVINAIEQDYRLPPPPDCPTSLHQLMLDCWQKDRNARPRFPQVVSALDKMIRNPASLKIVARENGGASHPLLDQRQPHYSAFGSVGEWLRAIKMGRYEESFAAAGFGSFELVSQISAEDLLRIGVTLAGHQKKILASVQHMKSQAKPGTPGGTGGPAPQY
Chain of Mitogen-activated protein kinase 15 (Homo sapiens) (Q8TD08 whole entry): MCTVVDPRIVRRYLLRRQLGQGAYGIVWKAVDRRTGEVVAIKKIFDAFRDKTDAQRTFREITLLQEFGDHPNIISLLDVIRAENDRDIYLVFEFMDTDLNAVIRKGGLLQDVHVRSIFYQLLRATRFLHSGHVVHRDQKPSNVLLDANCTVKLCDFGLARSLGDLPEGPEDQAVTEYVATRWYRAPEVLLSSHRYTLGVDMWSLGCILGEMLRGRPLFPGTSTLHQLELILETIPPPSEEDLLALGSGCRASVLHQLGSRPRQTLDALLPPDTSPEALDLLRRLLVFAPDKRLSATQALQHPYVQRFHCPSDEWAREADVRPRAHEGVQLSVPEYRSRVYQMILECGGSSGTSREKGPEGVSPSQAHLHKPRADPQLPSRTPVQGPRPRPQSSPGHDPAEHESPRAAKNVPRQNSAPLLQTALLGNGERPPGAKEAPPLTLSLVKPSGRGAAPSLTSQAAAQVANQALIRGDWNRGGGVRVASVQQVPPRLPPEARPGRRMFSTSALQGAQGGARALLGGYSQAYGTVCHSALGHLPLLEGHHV
Chain of Eukaryotic translation initiation factor 2-alpha kinase 3 (Homo sapiens) (Q9NZJ5 whole entry): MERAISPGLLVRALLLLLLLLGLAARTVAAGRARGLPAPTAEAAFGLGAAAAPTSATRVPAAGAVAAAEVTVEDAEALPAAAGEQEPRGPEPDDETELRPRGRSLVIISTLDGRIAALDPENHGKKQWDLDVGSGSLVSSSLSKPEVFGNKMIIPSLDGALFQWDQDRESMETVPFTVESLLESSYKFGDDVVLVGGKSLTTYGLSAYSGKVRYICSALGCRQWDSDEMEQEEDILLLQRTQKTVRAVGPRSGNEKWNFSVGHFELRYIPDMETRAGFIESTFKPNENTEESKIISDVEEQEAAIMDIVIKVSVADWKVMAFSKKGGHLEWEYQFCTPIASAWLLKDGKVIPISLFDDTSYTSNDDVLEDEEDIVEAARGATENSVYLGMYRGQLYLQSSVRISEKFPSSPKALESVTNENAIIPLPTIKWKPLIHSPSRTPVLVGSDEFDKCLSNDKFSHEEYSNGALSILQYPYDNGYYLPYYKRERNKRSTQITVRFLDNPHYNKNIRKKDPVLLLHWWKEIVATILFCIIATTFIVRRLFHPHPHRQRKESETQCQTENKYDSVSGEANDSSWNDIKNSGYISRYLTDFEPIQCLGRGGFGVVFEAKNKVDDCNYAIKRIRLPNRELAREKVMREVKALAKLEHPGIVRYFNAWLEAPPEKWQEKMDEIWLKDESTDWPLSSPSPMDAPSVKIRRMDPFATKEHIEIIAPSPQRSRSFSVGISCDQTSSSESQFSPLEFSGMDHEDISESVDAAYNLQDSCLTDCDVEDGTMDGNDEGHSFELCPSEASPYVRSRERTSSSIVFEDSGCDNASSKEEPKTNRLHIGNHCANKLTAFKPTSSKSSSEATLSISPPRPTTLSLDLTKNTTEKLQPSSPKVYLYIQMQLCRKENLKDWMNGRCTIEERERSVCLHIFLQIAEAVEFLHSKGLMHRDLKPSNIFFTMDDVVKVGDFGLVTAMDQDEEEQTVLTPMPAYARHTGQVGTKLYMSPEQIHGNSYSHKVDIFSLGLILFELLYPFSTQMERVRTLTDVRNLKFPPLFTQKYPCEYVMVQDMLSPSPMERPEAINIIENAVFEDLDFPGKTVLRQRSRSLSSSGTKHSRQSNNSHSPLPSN
Chain of Tyrosine-protein kinase ABL1 (Homo sapiens) (P00519 whole entry): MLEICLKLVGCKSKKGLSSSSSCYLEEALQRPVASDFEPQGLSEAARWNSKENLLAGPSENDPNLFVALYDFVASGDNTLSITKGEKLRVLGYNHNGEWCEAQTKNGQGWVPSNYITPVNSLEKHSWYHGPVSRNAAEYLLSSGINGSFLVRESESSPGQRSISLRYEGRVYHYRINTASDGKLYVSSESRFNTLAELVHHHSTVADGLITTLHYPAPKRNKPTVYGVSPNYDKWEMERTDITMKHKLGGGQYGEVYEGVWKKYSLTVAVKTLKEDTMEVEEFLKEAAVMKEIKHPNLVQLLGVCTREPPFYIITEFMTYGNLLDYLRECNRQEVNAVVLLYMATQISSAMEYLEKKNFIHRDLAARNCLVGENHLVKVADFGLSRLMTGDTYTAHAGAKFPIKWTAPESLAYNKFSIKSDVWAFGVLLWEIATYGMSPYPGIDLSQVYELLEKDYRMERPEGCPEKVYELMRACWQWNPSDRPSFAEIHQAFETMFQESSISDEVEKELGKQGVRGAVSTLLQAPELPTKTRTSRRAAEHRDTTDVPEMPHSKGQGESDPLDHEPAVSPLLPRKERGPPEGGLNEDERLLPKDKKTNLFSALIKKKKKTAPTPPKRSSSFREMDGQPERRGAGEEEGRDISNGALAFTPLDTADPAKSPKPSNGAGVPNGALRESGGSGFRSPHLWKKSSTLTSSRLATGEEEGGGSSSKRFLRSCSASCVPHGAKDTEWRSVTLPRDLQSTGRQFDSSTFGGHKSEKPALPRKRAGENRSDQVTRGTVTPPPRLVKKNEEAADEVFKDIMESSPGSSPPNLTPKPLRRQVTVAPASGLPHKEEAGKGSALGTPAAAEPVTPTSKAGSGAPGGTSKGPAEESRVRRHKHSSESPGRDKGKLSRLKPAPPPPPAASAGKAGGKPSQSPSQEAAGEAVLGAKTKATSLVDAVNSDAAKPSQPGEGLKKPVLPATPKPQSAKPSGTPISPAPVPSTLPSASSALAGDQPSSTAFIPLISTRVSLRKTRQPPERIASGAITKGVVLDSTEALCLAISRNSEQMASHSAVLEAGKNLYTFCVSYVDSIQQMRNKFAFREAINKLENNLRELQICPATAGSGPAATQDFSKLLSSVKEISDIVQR
Chain of Casein kinase I isoform gamma-2 (Homo sapiens) (P78368 whole entry, looked up, the tested form may be a part, canonical isoform): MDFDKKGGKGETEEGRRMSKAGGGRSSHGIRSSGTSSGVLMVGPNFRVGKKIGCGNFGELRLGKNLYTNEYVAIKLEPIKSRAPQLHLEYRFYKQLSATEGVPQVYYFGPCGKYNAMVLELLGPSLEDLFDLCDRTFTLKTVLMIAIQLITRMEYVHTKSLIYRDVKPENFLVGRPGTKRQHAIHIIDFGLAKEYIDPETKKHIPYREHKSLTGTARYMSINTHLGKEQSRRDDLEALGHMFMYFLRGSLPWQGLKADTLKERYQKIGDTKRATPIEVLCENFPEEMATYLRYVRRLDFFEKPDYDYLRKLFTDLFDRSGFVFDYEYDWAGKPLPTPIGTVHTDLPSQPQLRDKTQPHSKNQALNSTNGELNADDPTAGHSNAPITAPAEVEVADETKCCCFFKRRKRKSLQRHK

## Cc1ccc(F)c(S(=O)(=O)Nc2ccc(-c3nc(OC[C@H]4CN(CCCCCCOCCOCCOCC(=O)N[C@H](C(=O)N5C[C@H](O)C[C@H]5C(=O)NCc5ccc(-c6scnc6C)cc5)C(C)(C)C)CCO4)c4cn[nH]c4n3)cc2)c1
[1]
  % Activity remaining: 111%
[2]
  % Activity remaining: 86.3%
[3]
  % Activity remaining: 84.8%
[4]
  % Activity remaining: 101%
[5]
  % Activity remaining: 114%
[6]
  % Activity remaining: 106%
[7]
  % Activity remaining: 94.2%
[8]
  % Activity remaining: 91.6%
[9]
  % Activity remaining: 107%
[10]
  % Activity remaining: 102%
[11]
  % Activity remaining: 94.2%
[12]
  % Activity remaining: 92%
[13]
  % Activity remaining: 111%
[14]
  % Activity remaining: 108%
[15]
  % Activity remaining: 105%
[16]
  % Activity remaining: 98.6%
[17]
  % Activity remaining: 106%
[18]
  % Activity remaining: 123%
[19]
  % Activity remaining: 122%
[20]
  % Activity remaining: 127%
[21]
  % Activity remaining: 102%
[22]
  % Activity remaining: 106%
[23]
  % Activity remaining: 116%
[24]
  % Activity remaining: 94.5%
[25]
  % Activity remaining: 98.7%
[26]
  % Activity remaining: 103%
[27]
  % Activity remaining: 94%
[28]
  % Activity remaining: 97.9%
[29]
  % Activity remaining: 34.5%
[30]
  pIC50: 6.66
[31]
  % Activity remaining: 52.9%
[32]
  % Activity remaining: 122%
[33]
  % Activity remaining: 115%
[34]
  % Activity remaining: 120%

## Cc1ccc(F)c(S(=O)(=O)Nc2ccc(-c3nc(OC[C@H]4CN(CCCCCCOCCOCCOCC(=O)N[C@H](C(=O)N5C[C@@H](O)C[C@H]5C(=O)NCc5ccc(-c6scnc6C)cc5)C(C)(C)C)CCO4)c4cn[nH]c4n3)cc2)c1
[1]
  % Activity remaining: 112%
[2]
  % Activity remaining: 105%
[3]
  % Activity remaining: 99.1%
[4]
  % Activity remaining: 106%
[5]
  % Activity remaining: 134%
[6]
  % Activity remaining: 111%
[7]
  % Activity remaining: 104%
[8]
  % Activity remaining: 104%
[9]
  % Activity remaining: 108%
[10]
  % Activity remaining: 108%
[11]
  % Activity remaining: 86.4%
[12]
  % Activity remaining: 103%
[13]
  % Activity remaining: 105%
[14]
  % Activity remaining: 99%
[15]
  % Activity remaining: 112%
[16]
  % Activity remaining: 101%
[17]
  % Activity remaining: 102%
[18]
  % Activity remaining: 108%
[19]
  % Activity remaining: 122%
[20]
  % Activity remaining: 139%
[21]
  % Activity remaining: 113%
[22]
  % Activity remaining: 111%
[23]
  % Activity remaining: 98.7%
[24]
  % Activity remaining: 96.5%
[25]
  % Activity remaining: 101%
[26]
  % Activity remaining: 99.9%
[27]
  % Activity remaining: 91.7%
[28]
  % Activity remaining: 98.4%
[29]
  % Activity remaining: 50.9%
[30]
  pIC50: 5.85
[31]
  % Activity remaining: 70.7%
[32]
  % Activity remaining: 120%
[33]
  % Activity remaining: 113%
[34]
  % Activity remaining: 103%
